Reference: ChEMBL document CHEMBL4219204, “Structure-based design and discovery of potent and selective KDM5 inhibitors” (Bioorg Med Chem Lett, 2018)

Legend:
[1] = target: Lysine-specific demethylase 5A (Homo sapiens, UniProt P29375); test: Inhibition of KDM5A (unknown origin) preincubated with enzyme
[2] = target: T1, Lysine-specific demethylase 4C (Homo sapiens, UniProt Q9H3R0); test: Inhibition of KDM4C (unknown origin) preincubated with enzyme
T1 sequence (Q9H3R0 whole entry): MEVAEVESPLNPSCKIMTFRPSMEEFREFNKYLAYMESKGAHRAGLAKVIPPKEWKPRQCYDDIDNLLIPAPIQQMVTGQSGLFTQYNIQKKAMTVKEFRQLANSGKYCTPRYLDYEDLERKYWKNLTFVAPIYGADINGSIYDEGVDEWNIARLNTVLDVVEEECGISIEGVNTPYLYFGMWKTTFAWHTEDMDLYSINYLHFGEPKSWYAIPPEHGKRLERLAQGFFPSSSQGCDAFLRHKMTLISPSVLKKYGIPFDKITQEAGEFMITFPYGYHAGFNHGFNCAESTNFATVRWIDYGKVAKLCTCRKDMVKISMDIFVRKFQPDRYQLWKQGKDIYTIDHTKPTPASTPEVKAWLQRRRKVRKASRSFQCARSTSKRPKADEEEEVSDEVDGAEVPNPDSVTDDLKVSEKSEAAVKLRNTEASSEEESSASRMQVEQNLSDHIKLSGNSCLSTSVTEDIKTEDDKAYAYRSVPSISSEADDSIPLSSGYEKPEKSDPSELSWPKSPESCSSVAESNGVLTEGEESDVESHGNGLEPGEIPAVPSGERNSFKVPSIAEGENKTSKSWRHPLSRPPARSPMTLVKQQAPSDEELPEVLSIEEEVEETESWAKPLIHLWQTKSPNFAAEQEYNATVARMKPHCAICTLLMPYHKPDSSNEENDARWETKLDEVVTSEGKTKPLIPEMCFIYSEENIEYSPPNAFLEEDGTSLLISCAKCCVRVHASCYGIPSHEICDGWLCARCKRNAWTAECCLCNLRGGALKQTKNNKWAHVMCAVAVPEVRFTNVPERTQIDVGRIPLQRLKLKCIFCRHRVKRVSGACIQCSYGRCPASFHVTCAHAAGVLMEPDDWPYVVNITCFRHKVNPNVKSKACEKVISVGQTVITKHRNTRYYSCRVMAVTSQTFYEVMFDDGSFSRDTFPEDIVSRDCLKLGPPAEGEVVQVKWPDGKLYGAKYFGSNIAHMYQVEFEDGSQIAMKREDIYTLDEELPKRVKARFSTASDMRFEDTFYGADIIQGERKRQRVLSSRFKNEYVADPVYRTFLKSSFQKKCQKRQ

[3] = target: Lysine-specific demethylase 5B (Homo sapiens, UniProt Q9UGL1); test: Inhibition of KDM5B (unknown origin) preincubated with enzyme
[4] = target: Lysine-specific demethylase 5A/5B (Homo sapiens, UniProt P29375+Q9UGL1); test: Inhibition of KDM5A/KDM5B in human ZR-75-1 cells assessed as increase in H3K4me3 level after 72 hrs by fluorometric immunoassay; assay type: cell-based

Lysine-specific demethylase 5A, sequence (P29375 whole entry): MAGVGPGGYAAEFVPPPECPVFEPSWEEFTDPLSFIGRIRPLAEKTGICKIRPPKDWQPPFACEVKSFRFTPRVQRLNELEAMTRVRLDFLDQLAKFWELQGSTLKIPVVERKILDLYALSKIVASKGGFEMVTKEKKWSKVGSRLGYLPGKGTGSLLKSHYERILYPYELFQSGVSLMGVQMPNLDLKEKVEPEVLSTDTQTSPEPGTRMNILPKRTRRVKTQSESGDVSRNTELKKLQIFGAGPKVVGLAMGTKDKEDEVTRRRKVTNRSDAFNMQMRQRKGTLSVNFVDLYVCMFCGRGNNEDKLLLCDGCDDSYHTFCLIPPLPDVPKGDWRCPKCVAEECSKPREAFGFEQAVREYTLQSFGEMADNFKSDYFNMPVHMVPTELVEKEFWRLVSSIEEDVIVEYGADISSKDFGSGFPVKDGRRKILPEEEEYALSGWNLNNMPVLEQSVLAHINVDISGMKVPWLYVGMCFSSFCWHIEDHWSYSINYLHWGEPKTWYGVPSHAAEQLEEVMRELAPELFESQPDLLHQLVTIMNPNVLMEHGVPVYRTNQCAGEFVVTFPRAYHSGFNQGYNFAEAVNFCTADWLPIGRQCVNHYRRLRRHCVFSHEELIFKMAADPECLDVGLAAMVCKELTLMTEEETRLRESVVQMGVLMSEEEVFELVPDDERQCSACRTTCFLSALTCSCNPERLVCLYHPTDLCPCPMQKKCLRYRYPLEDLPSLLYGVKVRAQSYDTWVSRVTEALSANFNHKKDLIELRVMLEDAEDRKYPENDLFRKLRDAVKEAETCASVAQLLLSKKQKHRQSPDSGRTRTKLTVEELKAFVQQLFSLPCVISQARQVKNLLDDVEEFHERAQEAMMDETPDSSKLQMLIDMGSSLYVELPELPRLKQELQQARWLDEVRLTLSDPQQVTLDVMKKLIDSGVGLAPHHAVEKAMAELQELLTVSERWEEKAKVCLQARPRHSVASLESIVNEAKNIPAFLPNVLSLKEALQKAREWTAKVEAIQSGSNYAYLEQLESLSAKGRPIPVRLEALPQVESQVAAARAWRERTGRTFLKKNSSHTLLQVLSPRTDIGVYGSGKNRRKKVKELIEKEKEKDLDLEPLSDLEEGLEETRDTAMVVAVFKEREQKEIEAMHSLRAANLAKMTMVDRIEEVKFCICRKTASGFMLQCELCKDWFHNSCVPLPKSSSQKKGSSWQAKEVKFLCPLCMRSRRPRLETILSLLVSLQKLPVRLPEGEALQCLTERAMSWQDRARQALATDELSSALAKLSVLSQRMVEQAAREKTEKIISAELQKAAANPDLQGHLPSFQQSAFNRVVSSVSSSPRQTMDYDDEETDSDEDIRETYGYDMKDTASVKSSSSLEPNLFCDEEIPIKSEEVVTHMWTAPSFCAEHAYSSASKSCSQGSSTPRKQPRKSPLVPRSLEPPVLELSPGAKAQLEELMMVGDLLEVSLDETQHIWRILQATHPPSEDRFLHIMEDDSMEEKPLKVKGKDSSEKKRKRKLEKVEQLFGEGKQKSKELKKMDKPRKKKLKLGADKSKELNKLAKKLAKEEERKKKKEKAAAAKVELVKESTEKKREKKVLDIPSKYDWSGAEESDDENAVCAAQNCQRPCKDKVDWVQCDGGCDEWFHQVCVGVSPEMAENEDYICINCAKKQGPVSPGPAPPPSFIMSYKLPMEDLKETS
Lysine-specific demethylase 5B, sequence (Q9UGL1 whole entry): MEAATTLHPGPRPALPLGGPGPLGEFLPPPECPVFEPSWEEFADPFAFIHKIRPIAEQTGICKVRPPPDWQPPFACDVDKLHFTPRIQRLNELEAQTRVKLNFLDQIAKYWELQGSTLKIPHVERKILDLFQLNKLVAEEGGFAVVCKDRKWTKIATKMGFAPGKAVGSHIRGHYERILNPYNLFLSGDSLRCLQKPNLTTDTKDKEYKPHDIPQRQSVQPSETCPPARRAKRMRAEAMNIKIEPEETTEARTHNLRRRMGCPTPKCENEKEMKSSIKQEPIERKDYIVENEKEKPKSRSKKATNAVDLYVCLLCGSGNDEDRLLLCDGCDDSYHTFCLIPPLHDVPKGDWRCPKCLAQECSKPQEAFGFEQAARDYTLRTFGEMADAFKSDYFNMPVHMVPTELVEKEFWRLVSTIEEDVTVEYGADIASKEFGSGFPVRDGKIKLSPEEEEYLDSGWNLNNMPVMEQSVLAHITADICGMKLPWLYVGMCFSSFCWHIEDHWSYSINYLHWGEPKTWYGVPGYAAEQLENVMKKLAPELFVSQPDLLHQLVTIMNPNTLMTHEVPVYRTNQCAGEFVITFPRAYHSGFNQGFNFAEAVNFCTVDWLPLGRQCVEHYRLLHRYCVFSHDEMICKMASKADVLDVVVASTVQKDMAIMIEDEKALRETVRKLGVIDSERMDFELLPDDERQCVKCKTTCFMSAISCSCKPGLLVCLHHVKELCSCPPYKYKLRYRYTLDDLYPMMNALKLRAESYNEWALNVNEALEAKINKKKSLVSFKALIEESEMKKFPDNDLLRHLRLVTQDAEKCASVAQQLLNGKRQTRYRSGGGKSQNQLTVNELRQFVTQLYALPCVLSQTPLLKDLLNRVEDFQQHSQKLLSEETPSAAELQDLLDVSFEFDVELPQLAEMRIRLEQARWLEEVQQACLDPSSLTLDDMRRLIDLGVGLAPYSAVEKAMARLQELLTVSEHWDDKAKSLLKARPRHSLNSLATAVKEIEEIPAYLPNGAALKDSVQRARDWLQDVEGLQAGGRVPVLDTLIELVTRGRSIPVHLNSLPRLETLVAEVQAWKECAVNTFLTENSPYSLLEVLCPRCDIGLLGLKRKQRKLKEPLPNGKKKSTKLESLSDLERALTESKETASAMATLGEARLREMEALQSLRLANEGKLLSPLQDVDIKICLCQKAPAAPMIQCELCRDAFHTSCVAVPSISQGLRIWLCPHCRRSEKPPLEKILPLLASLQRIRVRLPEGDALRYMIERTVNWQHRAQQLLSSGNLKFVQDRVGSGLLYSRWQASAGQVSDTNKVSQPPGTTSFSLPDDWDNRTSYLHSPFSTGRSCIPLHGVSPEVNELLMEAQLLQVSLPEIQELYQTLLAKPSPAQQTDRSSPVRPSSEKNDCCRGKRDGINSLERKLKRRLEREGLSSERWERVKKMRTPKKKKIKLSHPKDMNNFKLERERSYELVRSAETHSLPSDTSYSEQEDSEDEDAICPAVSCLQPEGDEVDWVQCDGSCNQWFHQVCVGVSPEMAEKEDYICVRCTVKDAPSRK

IC50 [1] [nM] | IC50 [2] [nM] | IC50 [3] [nM] | EC50 [4] [nM] | SMILES
1700 | 68 | 4 | – | COc1ccc(COc2ccnn2-c2cc(C(=O)O)ccn2)cc1
250 | – | 8 | – | O=C(O)c1ccnc(-n2nccc2OCc2ccc(C3CC3)cc2)c1
– | 1100 | 200 | – | Cc1ccc(-c2ccnn2-c2cc(C(=O)O)ccn2)cc1
77 | 2900 | 54 | – | Cc1cnn(-c2cc(C(=O)O)ccn2)c1OCc1ccc(F)cc1
– | 6200 | 4400 | – | O=C(O)c1ccnc(-n2nccc2-c2ccccc2)c1
4 | 14 | 0.6 | 940 | N#Cc1ccc(COc2ccnn2-c2cc(C(=O)O)ccn2)cc1
– | 380 | 170 | – | O=C(O)c1ccnc(-n2nccc2-c2ccc(F)cc2F)c1
180 | 310 | 41 | – | CC(Oc1ccnn1-c1cc(C(=O)O)ccn1)c1ccc(F)cc1 (stereo unspecified)
80 | > 2000 | 68 | – | O=C(O)c1ccnc(-n2ncc(CCO)c2OCc2ccc(F)cc2)c1
240 | – | – | – | O=C(O)c1ccnc(-n2nccc2OCc2ccc(C(F)(F)F)cc2)c1
14 | 54 | 4 | 420 | O=C(O)c1ccnc(-n2nccc2OCc2ccc(Cl)cc2)c1
– | 560 | 370 | – | O=C(O)c1ccnc(-n2nccc2-c2ccc(F)c(F)c2)c1
75 | 280 | 6 | – | O=C(O)c1ccnc(-n2nccc2OCc2ccc(Cl)cc2OCC2CC2)c1
– | 410 | 120 | – | O=C(O)c1ccnc(-n2nccc2-c2cccc(O)c2)c1
38 | 24 | 4 | 840 | O=C(O)c1ccnc(-n2nccc2OCc2ccc(F)cc2)c1
6 | – | 2 | 860 | O=C(O)c1ccnc(-n2nccc2OCc2ccc(Br)cc2)c1
44 | 3600 | 3 | 1300 | CCc1ccc(COc2ccnn2-c2cc(C(=O)O)ccn2)cc1

IC50 [1] [nM] | IC50 [2] [nM] | IC50 [3] [nM] | EC50 [4] [nM] | SMILES
– | 1800 | 540 | – | COc1cc(-c2ccnn2-c2cc(C(=O)O)ccn2)ccc1C
– | 1100 | 76 | – | Cc1ccc(-c2ccnn2-c2cc(C(=O)O)ccn2)cc1O
– | 490 | 240 | – | O=C(O)c1ccnc(-n2nccc2-c2ccc(F)cc2)c1
550 | 5 | 1 to 24 | 7000 | O=C(O)c1ccnc(-n2nccc2OCc2ccccc2)c1
– | 2900 | 230 | – | COc1cc(-c2ccnn2-c2cc(C(=O)O)ccn2)ccc1Cl
– | 660 | 500 | – | O=C(O)c1ccnc(-n2nccc2-c2cccc(F)c2)c1
32 | 74 | 4 | 800 | O=C(O)c1ccnc(-n2nccc2OCc2ccc(Cl)cc2OCc2ccccc2)c1
18 | – | 4 | 1300 | O=C(O)c1ccnc(-n2nccc2OCc2ccc(Cl)cc2F)c1
– | 2700 | 350 | – | CS(=O)(=O)c1ccc(-c2ccnn2-c2cc(C(=O)O)ccn2)cc1
430 | – | 22 | 12000 | O=C(O)c1ccnc(-n2nccc2OCc2cccc(F)c2)c1
3 | 19 | 1 | 4600 | CN(C)CCc1cnn(-c2cc(C(=O)O)ccn2)c1OCc1ccc(F)cc1
– | 450 | 320 | – | O=C(O)c1ccnc(-n2nccc2-c2ccc(O)cc2)c1
29 | 260 | 24 | – | CCc1cnn(-c2cc(C(=O)O)ccn2)c1OCc1ccc(F)cc1
32 | 1100 | 4 | 990 | Cc1ccc(COc2ccnn2-c2cc(C(=O)O)ccn2)cc1
19 | 78 | 4 | 1000 | CCOc1cc(Cl)ccc1COc1ccnn1-c1cc(C(=O)O)ccn1
12 | 38 | 1 | 110 | COc1cc(Cl)ccc1COc1ccnn1-c1cc(C(=O)O)ccn1
270 | – | 42 | – | O=C(O)c1ccnc(-n2nccc2OCc2ccccc2F)c1
